Experimental data from patent US12590083B2, “Inhibitors of spinster homolog 2 (SPNS2) for use in therapy” (University of Virginia Patent Foundation, priority 2019, dated 2026).
Structures can show the parent of a compound that is named as a salt.

Target: T1, human SPNS2 (Homo sapiens, UniProt Q8IVW8)
T1 construct: expressed in transfected cells; host or cells: Saccharomyces cerevisiae strain with forced expression of a mammalian SphK and human SPNS2
T1 sequence (Q8IVW8 1-549): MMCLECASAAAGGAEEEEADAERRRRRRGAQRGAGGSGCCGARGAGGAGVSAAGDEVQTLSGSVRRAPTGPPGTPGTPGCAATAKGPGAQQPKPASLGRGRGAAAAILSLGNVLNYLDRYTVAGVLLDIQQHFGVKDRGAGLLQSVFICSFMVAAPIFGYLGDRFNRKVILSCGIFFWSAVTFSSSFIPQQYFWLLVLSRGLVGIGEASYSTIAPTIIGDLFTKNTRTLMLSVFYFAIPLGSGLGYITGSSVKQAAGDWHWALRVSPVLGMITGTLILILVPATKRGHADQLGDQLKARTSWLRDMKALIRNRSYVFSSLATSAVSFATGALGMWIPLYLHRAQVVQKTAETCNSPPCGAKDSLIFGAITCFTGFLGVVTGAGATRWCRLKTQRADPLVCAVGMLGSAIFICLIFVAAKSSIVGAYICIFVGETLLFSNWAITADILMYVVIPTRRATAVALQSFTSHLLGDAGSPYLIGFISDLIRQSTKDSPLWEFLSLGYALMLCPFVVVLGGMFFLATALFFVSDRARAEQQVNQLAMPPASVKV
Assay: S1P transporter assay: growth of S. cerevisiae strain with forced expression of a mammalian SphK and human SPNS2
Assay type: cell-based
Settings: in vitro inhibition of SPNS2; growth of S. cerevisiae strain expressing mammalian SphK and human SPNS2; compounds as their pharmaceutical salts
Outline: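 S. cerevisiae strain with forced expression of a mammalian SphK and human SPNS2; since excess phospho-LCB inhibits yeast growth, SPNS2 inhibitors reduce growth of this strain. Inhibition measured in vitro as decreased strain growth.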

Row | SMILES | IC50 [nM]
1 | C/C(=N\OC(C)c1ccccc1)c1ccc(-c2noc([C@@H]3CCN(C(=N)N)C3)n2)cc1 (some centres unmarked) [Compound 40f, hydrochloride] | > 2000
2 | CCCCCCCO/N=C(\C)c1ccc(-c2noc([C@@H]3CCN(C(=N)N)C3)n2)cc1 [Compound 40i, (R)-3-(3-(4-(1-((heptyloxy)imino)ethyl)phenyl)-1,2,4-oxadiazol-5-yl)pyrrolidine-1-carboximidamide hydrochloride] | ≤ 2000
3 | CCCCCO/N=C(\C)c1ccc(-c2noc([C@@H]3CCN(C(=N)N)C3)n2)cc1 [Compound 40l, (R)-3-(3-(4-(1-((pentyloxy)imino)ethyl)phenyl)-1,2,4-oxadiazol-5-yl)pyrrolidine-1-carboximidamide hydrochloride] | > 2000
4 | C/C(=N\OCc1ccc(Br)cc1)c1ccc(-c2noc([C@@H]3CCN(C(=N)N)C3)n2)cc1 [Compound 40n, (R)-3-(3-(4-(1-(((4-bromobenzyl)oxy)imino)ethyl)phenyl)-1,2,4-oxadiazol-5-yl)pyrrolidine-1-carboximidamide hydrochloride] | > 2000
5 | CCCCCCCCNC(=O)c1ccc(-c2noc([C@@H]3CCN(C(=N)N)C3)n2)cc1 [Compound 40p, (R)-4-(5-(1-carbamimidoylpyrrolidin-3-yl)-1,2,4-oxadiazol-3-yl)-N-octylbenzamide hydrochloride] | > 2000

Other lines, results leading:

Row | IC50 [nM] | SMILES
6 | ≤ 2000 | C/C(=N\OCc1cccc(-c2ccccc2)c1)c1ccc(-c2noc([C@@H]3CCN(C(=N)N)C3)n2)cc1 [Compound 40e, (R)-3-(3-(4-(1-(([1,1′-biphenyl]-3-ylmethoxy)imino)ethyl)phenyl)-1,2,4-oxadiazol-5-yl)pyrrolidine-1-carboximidamide hydrochloride]
7 | > 2000 | C/C(=N\OCc1ccccc1)c1ccc(-c2noc([C@@H]3CCN(C(=N)N)C3)n2)cc1 [Compound 40g, (R)-3-(3-(4-(1-((benzyloxy)imino)ethyl)phenyl)-1,2,4-oxadiazol-5-yl)pyrrolidine-1-carboximidamide hydrochloride]
8 | ≤ 2000 | C/C(=N\OCc1ccc2c(c1)C(C)(C)CCC2(C)C)c1ccc(-c2noc([C@@H]3CCN(C(=N)N)C3)n2)cc1 [Compound 40h, (R)-3-(3-(4-(1-(((5,5,8,8-tetramethyl-5,6,7,8-tetrahydronaphthalen-2-yl)methoxy)imino)ethyl)phenyl)-1,2,4-oxadiazol-5-yl)pyrrolidine-1-carboximidamide hydrochloride]
9 | > 2000 | CCCCCCCCCO/N=C(\C)c1ccc(-c2noc([C@@H]3CCN(C(=N)N)C3)n2)cc1 [Compound 40j, (R)-3-(3-(4-(1-((nonyloxy)imino)ethyl)phenyl)-1,2,4-oxadiazol-5-yl)pyrrolidine-1-carboximidamide hydrochloride]
10 | ≤ 2000 | C/C(=N\OCc1ccc(C(C)(C)C)cc1)c1ccc(-c2noc([C@@H]3CCN(C(=N)N)C3)n2)cc1 [Compound 40k, (R)-3-(3-(4-(1-(((4-(tert-butyl)benzyl)oxy)imino)ethyl)phenyl)-1,2,4-oxadiazol-5-yl)pyrrolidine-1-carboximidamide hydrochloride]
11 | > 2000 | C/C(=N\OCc1ccc(F)cc1)c1ccc(-c2noc([C@@H]3CCN(C(=N)N)C3)n2)cc1 [Compound 40m, (R)-3-(3-(4-(1-(((4-fluorobenzyl)oxy)imino)ethyl)phenyl)-1,2,4-oxadiazol-5-yl)pyrrolidine-1-carboximidamide hydrochloride]
